Test results as given in patent publication US20020107197A1, “Ligands for G protein coupled receptors and methods of using them” (priority 2000, published 2002).

Assays:
[1] = biological target: T1, GPR4 (Homo sapiens, UniProt P46093); assay: Radioligand binding to homogenates of GPR4-transfected CHO cells; settings: cold competitors, GPR4-transfected CHO cell homogenates
T1 construct: were used to generate full length GPR4, which was digested with EcoRI and Xba I and cloned into the pBs3HA vector; expressed in transfected cells
T1 sequence (P46093 whole entry): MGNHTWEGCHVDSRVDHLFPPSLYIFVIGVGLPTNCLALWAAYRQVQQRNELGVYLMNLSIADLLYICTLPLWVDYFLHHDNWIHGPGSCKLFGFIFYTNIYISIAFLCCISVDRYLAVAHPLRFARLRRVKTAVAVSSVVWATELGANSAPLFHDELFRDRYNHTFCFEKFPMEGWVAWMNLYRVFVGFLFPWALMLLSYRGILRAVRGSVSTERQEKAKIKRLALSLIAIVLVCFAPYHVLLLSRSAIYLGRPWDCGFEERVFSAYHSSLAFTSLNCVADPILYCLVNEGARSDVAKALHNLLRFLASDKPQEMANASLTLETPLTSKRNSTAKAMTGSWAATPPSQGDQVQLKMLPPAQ
Procedure: To characterize the binding of SPC and LPC to GPR4 and TDAG8, we conducted radioligand binding assays. CHO cells were chosen for GPR4 binding assays, since HEK293 cells express relatively high levels of endogenous GPR4. CHO cells stably transfected with empty vector or GPR4 were serum starved for 20 h, then collected after exposure to 2 mM EDTA in PBS. The pelleted cells were stored at −80° C. until use. Binding assays were performed essentially as described previously (Xu et al. (2000) Nat Cell Biol 2, 261-267), except binding was performed at 4° C. Briefly, frozen cells (10^6 cells/ml) were homogenized in a binding buffer. Assays were performed in 96-well plates in triplicate with 100 μl cell homogenate (equivalent to 10^5 cells/well). Different amounts of [^3H]SPC or [^3H]16:0-LPC were added to the cell homogenates in 50 μl of binding buffer, in the presence or absence of cold SPC or 16:0-LPC, or other competitors. The plates were incubated at 4° C. for 120 min, unless otherwise indicated. Cell-bound [^3H]SPC or [^3H]LPC was collected onto a filter (Printed Filtermat A, Wallac, Gaithersburg, Md.) using an automated cell harvester (HARVESTER 96, Tomtec, Orange, Conn.). Specific binding was calculated by subtraction of nonspecific binding (binding detected in the presence of 100-fold excess unlabeled SPC or 16:0-LPC) from the total binding.
Cell homogenates were used for binding assays. Binding was conducted at 4° C. for 120 min or as indicated. [^3H]SPC and [^3H]16:0-LPC specifically bound to cell homogenates from GPR4-transfected CHO cells in a time-dependent manner and reached equilibrium after 60 min incubation at 4° C. […] The maximum binding capacities for SPC and 16:0-LPC were 996 fmole/10^5 cells for SPC and 1,528 fmole/10^5 cells for 16:0-LPC. […] Binding assays using [^3H]18:0-LPC gave similar results. We also tested the four glycosphingolipids, Psy, Glu-Sph, Gal-Cer, and Lac-Cer, for their ability to compete for the binding of [^3H]SPC and [^3H]16:0-LPC to GPR4.

[2] = biological target: T1, GPR4; assay: Single-cell intracellular calcium assay (fura-2) in GPR4-GFP-transfected MCF10A cells; assay type: cell-based; settings: for effect of PAF receptor antagonist on calcium response to LPC or SPC: BN52021 200 μM, WEB-2086 2 μM, WEB-2170 2 μM; for increase in [Ca2+]i in GPR4- vs vector-transfected/parental MCF10A cells: lipid at 1 μM
Procedure: (§1) Measurement of [Ca^2+]i, was performed as described previously in Xu et al. (2000) Nat Cell Biol 2, 261-267. Briefly, pGPR4-GFP-transfected MCF10A cells were grown in specialized glass-bottom dishes (Bioptech, Inc., Butler, Pa.) and loaded with fura-2 in HEPES buffered saline. Using a dual-wavelength spectrofluorometer (RFK-6002, Photon Technology Int'l, So. Brunswick, N.J.) coupled to an inverted fluorescence microscope (Olympus, IX-70, Lake Success, N.Y.), GFP-positive cells were identified using an excitation wavelength of 488 nm, a dichroic 505 nm long-pass filter and an emitter filter at bandpass of 535 nm (Chroma Technology, Brattleboro, Vt.). Measurements of [Ca^2+]i were performed on individual GPR4-GFP positive cells at excitation wavelengths of 340 and 380 nm and an emission wavelength of 510 nm. Conversion of the 340/380 ratio value into [Ca^2+]i in nM was estimated by comparing the cellular fluorescence ratio with ratios acquired using fura-2 (free acid) in buffers containing known Ca^2+ concentrations. [Ca^2+]i was then calculated as described by Grynkiewicz et al. (1985) J Biol Chem 260, 3440-3450. All calcium assays were performed in the presence of 1 mM EGTA in the assay buffers. Therefore, intracellular calcium release, not calcium influx, was analyzed.
To test whether GPR4 is a receptor for SPC, MCF10A cells were transiently transfected with pGPR4-GFP.
The GFP receptor fusion was used to identify positively transfected cells, and single-cell calcium assays were performed as described in our previous studies, such as Xu et al. (2000) Nat Cell Biol 2, 261-267.

[3] = biological target: T2, endogenous PAF receptor (Homo sapiens, UniProt P25105); assay: Calcium assay of the endogenous PAF receptor in MCF10A cells; assay type: cell-based; settings: BN52021 200 μM, WEB-2086 2 μM, WEB-2170 2 μM
T2 construct: endogenous in cells; host or cells: MCF10A (parental and GPR4-GFP-transfected)
T2 sequence (P25105 whole entry): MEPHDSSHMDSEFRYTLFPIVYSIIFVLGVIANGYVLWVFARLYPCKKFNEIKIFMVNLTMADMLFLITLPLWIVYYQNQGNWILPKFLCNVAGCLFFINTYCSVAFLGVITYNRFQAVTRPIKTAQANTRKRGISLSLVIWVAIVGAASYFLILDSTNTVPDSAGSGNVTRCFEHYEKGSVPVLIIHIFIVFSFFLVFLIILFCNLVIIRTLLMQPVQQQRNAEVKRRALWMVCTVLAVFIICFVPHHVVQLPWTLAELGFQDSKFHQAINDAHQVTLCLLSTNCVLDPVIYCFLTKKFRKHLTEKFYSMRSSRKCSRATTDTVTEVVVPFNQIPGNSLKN
Procedure: as §1
Therefore, it is unlikely that the increase in calcium induced by LPC was mediated by a PAF receptor.

[4] = biological target: T1, GPR4; assay: Internalization of GPR4-GFP in HEK293 cells (confocal microscopy); assay type: cell-based
Procedure: pGPR4-GFP stably expressing HEK293 cells were cultured in 6 cm tissue culture dishes in RPMI1640 with 10% FBS. After 16-24 h serum starvation, cells were treated with different lipids at 37° C. for 2 h. Cells were washed with cold PBS and fixed with 4% paraformaldehyde in PBS. The subcellular localization of GPR4-GFP protein was visualized under a Leica TV confocal fluorescence microscope with a 63× oil immersion lens (Wetzler, Heidelberg, Germany). The excitation and emission wavelengths were 488 nm and 515-540 nm, respectively.
G protein coupled receptors undergo agonist-dependent desensitization and internalization. When HEK293 cells are transfected with the pEGFP-N1 vector, GFP protein is expressed in the cytosol of the cells. The GPR4-GFP and TDAG8-GFP fusion proteins, on the other hand, was expressed only on the plasma membrane.

[5] = biological target: T1, GPR4; assay: ERK MAP kinase activation (phospho-ERK Western blot) in GPR4-infected Swiss 3T3 cells; assay type: cell-based; settings: GPR4-ires-GFP vs GFP Swiss 3T3 cells; SPC and LPC 100 nM
Procedure: MAP kinases are key signaling intermediates of DNA synthesis and cell proliferation. Swiss 3T3 cells were infected with MSCV GPR4-ires-GFP or MSCV ires-GFP, and subsequently cells sorted by FACS for positive expression of GFP as described previously (Kabarowski et al. (2000) Proc Natl Acad Sci USA. 97, 12109-12114). Cells were plated in 6-well plates in DMEM containing 5% FBS, serum-starved overnight, and then treated lipids in DMEM for the indicated times. Cells were lysed on ice in RIPA buffer containing 50 mM Tris-HCl, pH 7.5, 1% Nonidet P-40, 0.5% deoxycholate,0.1% SDS, 150 mM NaCl, 2 mM EGTA, 25 mM sodium fluoride, 1 mM sodium orthovanadate, and 1× protease inhibitors (Sigma P8340). Lysates containing equal amounts of protein were separated on 10% SDS-polyacrylamide gels and transferred onto nitrocellulose membranes. Antibodies against phosphorylated ERK1/2 (Cell Signaling Technologies; Beverly, Mass.) were used to probe the membrane and the ECL system (Amersham) was used for detection. To normalize the amounts of protein loaded in each lane, membranes were stripped and re-probed with antibodies against total ERK (Cell Signaling Technologies). In some experiments, cells were pretreated with 100 ng/ml PTX for 12-16 h prior to SPC and LPC stimulation.

[6] = biological target: T1, GPR4; assay: SRE luciferase reporter in GPR4-transfected HEK293 cells; assay type: cell-based; settings: GPR4 cotransfection
Procedure: The serum-response element (SRE) reporter system is a sensitive assay for receptors of lipid factors (An et al. (1998) J Biol Chem 273, 7906-7910; An et al. (1999) Mol Pharmacol 55, 787-794). The SRE reporter system used herein (pSRE-Luc) was a gift from Dr. Songzhu An (UCSF), or may be purchased from Stratagene (La Jolla, Calif.). Both systems give identical results. HEK293 and HEK293GPR4 cells were cultured in RPMI1640 with 10% FBS in 10 cm dishes to ˜85% confluence. To the cells in each dish, pSRE-Luc (10 μg) was transfected in the presence of 60 μl LipofectAMINE reagent. Cells were seeded in 96-well plates 16 h after transfection, incubated for another 24 h in RPMI1640 with 10% FBS, and starved in serum-free medium for 16 h. SPC (dissolved in PBS to 10 mM) and other lipids (LPCs were dissolved in 70% ethanol. Other lipids were dissolved in PBS, 70-95% ethanol, or 100% MeOH) were diluted in serum free RPMI 1640 and added to the cells, followed by a 10 h incubation. Luciferase activity was measured in Microlite™ 1 plates (DYNEX Technologies, Inc., Virginia) using 60 μl of cell lysate and 20 μl luciferase substrate. PTX (100 ng/ml) was added during the 16 h serum starvation period and pcDNA1-C3 (encoding the C3-exoenzyme, 2 μg) was co-transfected with pSRE-Luc (10 μg). All experiments were performed in quadruplicate and were repeated at least three times. The Student's t test was performed using the GraphPad Instat software (San Diego, Calif.). p<0.05 was considered to be statistically significant.

Molecule	competition for binding of [3H]SPC and [3H]16:0-LPC to GPR4 [1]	increase in [Ca2+]i in GPR4- vs vector-transfected/parental MCF10A cells [2]	GPR4-dependent ERK activation (in words) [5]	also measured
CCCCCCCCCCCCCCCCCC(=O)OC[C@@H](O)COP(=O)([O-])OCC[N+](C)(C)C [18:0-LPC]	successfully competed for binding			
CC1C(=O)OC2C(O)C34C5CC(C(C)(C)C)C36C(OC(=O)C6O)OC4(C(=O)O5)C12O (stereo not shown) [BN52021]				effect of PAF receptor antagonist on calcium response to LPC or SPC [2]: not affected; effect on calcium signal induced by PAF (100 nM) [3]: completely abolished; effect of PAF receptor antagonist on GPR4 internalization induced by SPC or 16:0-LPC [4]: did not block
CCCCCCCCCCCCC/C=C/[C@@H](O)[C@@H](N)COP(=O)([O-])OCC[N+](C)(C)C [D-erythro-SPC]		stereoselectivity of GPR4 favoring D-erythro-SPC		
CCCCCCCCCCCCC/C=C/[C@@H](O)[C@@H](N)CO[C@@H]1O[C@H](CO)[C@@H](O)[C@H](O)[C@H]1O [Glu-Sph, glucosyl-β1′1-sphingosine]	None of these glycosphingolipids competed successfully	did not stimulate increases in [Ca^2+]i	not	
CCCCCCCCCCCCC/C=C/[C@@H](O)[C@@H](N)COP(=O)([O-])OCC[N+](C)(C)C [L-threo-SPC]		favoring D-erythro-SPC (the bioactive form of SPC) vs. L-threo-SPC		
CCCCCCCCCCCCC/C=C/[C@@H](O)[C@@H](N)CO[C@@H]1O[C@H](CO)[C@H](O)[C@H](O)[C@H]1O [Psy, psychosine]	None of these glycosphingolipids competed successfully	did not stimulate increases in [Ca^2+]i	not	
Cc1nnc2n1-c1sc(CCC(=O)N3CCOCC3)cc1C(c1ccccc1Cl)=NC2 [WEB-2086]				effect of PAF receptor antagonist on calcium response to LPC or SPC [2]: not affected; effect on calcium signal induced by PAF (100 nM) [3]: completely abolished; effect of PAF receptor antagonist on GPR4 internalization induced by SPC or 16:0-LPC [4]: did not affect
Cc1nnc2n1-c1sc3c(c1C(c1ccccc1Cl)=NC2)CC(C(=O)N1CCOCC1)C3 (stereo not shown) [WEB-2170]				effect of PAF receptor antagonist on calcium response to LPC or SPC [2]: did not affect; effect of PAF receptor antagonist on calcium response to LPC or SPC ([2]; listed as WEB-2071): insensitive; effect on calcium signal induced by PAF (100 nM) [3]: completely blocked; effect of PAF receptor antagonist on GPR4 internalization induced by SPC or 16:0-LPC [4]: did not affect
Sphingomyelin [SM (18:0)]	not			transcriptional activation of SRE (in words) [6]: none of them induced significant transcriptional activation of SRE
galactosyl-β1′1-ceramide [Gal-Cer]	None of these glycosphingolipids competed successfully	induced the same level of increased [Ca^2+]i	not	
lactosyl-β1′1-ceramide [Lac-Cer]	None of these glycosphingolipids competed successfully	did not stimulate increases in [Ca^2+]i	activation was independent of GPR4 expression	
lysophosphatidylinositol [LPI(18:0)]	not			
